Experimental findings from patent publication US11738021B2, “Composition and method for preventing, alleviating or treating cancer” (CKP Therapeutics, Inc., priority 2021, dated 2023) are described below.

In data set [1] the test system is YUMC-H2 cell line xenograft. Conditions: YUMC-H2 xenograft mice, oral, 13 times over 41 days, doses per Table 3.
Description: (§1) 15 days after injection of each of the cell lines, when the tumor volume reached about 100 to 200 mm^3, mice having a tumor with the above volume were randomly grouped (n=10/group), and then each drug was administered to the mice 13 times for a total of 41 days under the conditions shown in Table 3 below. […] Here, nothing was administered to the control group.
Data set [2] concerns YUMC-P1 cell line xenograft. Conditions: YUMC-P1 xenograft mice, oral, 13 times over 41 days, doses per Table 3.
Description: as §1
A further data set relates to YUMC-P1 cell line. Nature of the data set: MTT cell viability, anticancer drug-resistant YUMC-P1 cell line. Type of data set: cell-based, human. The conditions noted are these: drug alone at 200 μM, FIG. 2.
Another data set deals with YUMC-H2 cell line. The experiment in a line: MTT cell viability, anticancer drug-resistant YUMC-H2 cell line. It counts as cell-based, human. Conditions: drug alone at 200 μM, FIG. 2.
In a further data set the test system is YUMC-C1 cell line. Conditions: drug alone at 200 μM, FIG. 2.
For data set [3], the system named is YUMC-C1 cell line xenograft. Type of data set: in vivo. Conditions: YUMC-C1 xenograft mice, oral, 13 times over 41 days, doses per Table 3.
Description: as §1

Consider `CNC(=O)c1cc(Oc2ccc(NC(=O)Nc3ccc(Cl)c(C(F)(F)F)c3)cc2)ccn1` [sorafenib], for which the tumor volume entry in data set [1] (FIG. 3) and in data set [2] (FIG. 3) was “no significant changes” each time. The tumor weight result in data set [1] (FIG. 4) and in data set [2] (FIG. 4) was “no significant changes” each time. For the same compound, the cells survived entry with YUMC-P1 cell line and with YUMC-H2 cell line was “more than 80%” each time.

Take `O=C1[O][Pt]2([NH][C@@H]3CCCC[C@H]3[NH]2)[O]C1=O` [oxaliplatin]: the cells survived result with YUMC-C1 cell line is “more than 80%”. The tumor volume result in data set [3] (vs control, FIG. 3) was “did not significantly decrease”. Also, the tumor weight result in data set [3] (vs control, FIG. 4) was “did not significantly decrease”.

With `Cc1nc2c(C)cccc2c2c1CCN2c1ccccc1F` [Candidate 19], the “changes in mouse body weight (toxicity)” value in data set [1] (FIG. 5), in data set [2] (FIG. 5) and in data set [3] (FIG. 5) was “no changes” in each case.
